Laboratory results as given in patent US20260109707A1, “HETEROBIFUNCTIONAL COMPOUNDS AND METHODS OF TREATING DISEASE” (Halda Therapeutics OpCo. Inc., priority 2022, published 2026).

What was measured:
[1] = tested on: T-Rex 293 cell line SC3 cells having increased expression of androgen receptor protein due to exposure to doxycycline; experiment: Cellular growth inhibition assay, T-Rex 293 SC3 cells with doxycycline (CellTiter-Glo, 72 hours); assay type: cell-based; settings: T-Rex 293 SC3 cells with increased androgen receptor expression due to doxycycline (10 ng/mL)
Protocol: (§1) The following types of cells were prepared for this experiment: (i) a T-Rex 293 cell line having increased expression of androgen receptor protein due to exposure to doxycycline and (ii) a T-Rex 293 cell line lacking increased expression of androgen receptor protein. Ability of the test compounds to inhibit proliferation of the foregoing cell types was evaluated according to the procedures set forth below.
(§2) The doxycycline-inducible androgen receptor protein expressing cell line was established using the following protocol: T-Rex 293 cells were purchased from Invitrogen (Cat #R71007) and transfected using Lipofectamine 2000 with the wild-type androgen receptor protein sequence cloned into the pcDNA4/TO vector. Transfected cells were selected using 400 μg/mL Zeocin (Invitrogen Cat #R25001). Following selection, single clones were raised and maintained in Dulbecco's Modified Eagle Medium (DMEM) supplemented with 10% w/w Tetracycline-free fetal bovine serum (FBS) and 250 μg/mL Zeocin. Clones were analyzed for expression of androgen receptor protein in the presence and absence of 10 ng/mL doxycycline (Sigma Cat #D9891), and a single doxycycline-inducible clone (hereinafter “SC3”) was selected for use in downstream assays.
(§3) The SC3 cells were seeded on poly-D-lysine coated, black clear-bottom 384-well plates at 2500/well, in 25 μL Phenol Red Free Dulbecco's Modified Eagle Medium (DMEM) supplemented with 10% w/w charcoal-dextran treated fetal bovine serum (FBS) and 1% w/w pen-strep, with or without 10 ng/mL doxycycline. Pen-Strep is a commercially available mixture of penicillin G and streptomycin, which is used in mammalian cell culture media to prevent bacterial contamination. Phenol Red Free Dulbecco's Modified Eagle Medium (DMEM) supplemented with 10% w/w charcoal-dextran treated fetal bovine serum (FBS) and 1% w/w pen-strep, with or without 10 ng/mL doxycycline is herein referred to as Treatment Medium. Following seeding of cells in the plates, the plates were spun at 300×g for 30 seconds, then equilibrated to room temperature for 30 minutes, and then deposited in a humidified tissue culture incubator maintained at 37° C. with 5% CO2.
(§4) At 24 hours after seeding of the cells, dilutions of test compound were prepared in DMSO and dissolved in Treatment Medium, to achieve a final DMSO concentration of 0.5% w/w, thereby providing the Test Compound Solution. A 25 μL aliquot of the Test Compound Solution was added to cells in the well plates. An equal volume of a solution containing DMSO and Treatment Medium was used as a negative control. Following treatment of cells with Test Compound Solution or said equal volume of a solution containing DMSO and Treatment Medium, the plates were spun at 300×g for 30 seconds, and then left in an incubator for 72 hours.
(§5) At the end of the treatment duration, cell viability was quantified with CellTiter-Glo 2.0 reagent (Promega Cat #G9243). For this purpose, plates were equilibrated to room temperature for 30 minutes, and then 25 μL of CellTiter-Glo 2.0 reagent was added to cells in the plate wells. Plates were then agitated on a shaker for two minutes at 500 rpm and subsequently incubated at room temperature for 10 minutes. Following incubation, the plates were spun at 3000×g for 30 seconds, then sealed with an optical adhesive cover, and luminescence readings were measured with an EnVision Plate Reader.
(§6) Data was normalized using zero luminescence for baseline. A four-parameter non-linear regression curve fit was applied to dose-response data in GraphPad Prism data analysis software to determine the half-maximal growth inhibitory concentration (GI50) for each test compound.

[2] = tested on: T-Rex 293 cell line SC3 cells lacking increased expression of androgen receptor protein; experiment: Cellular growth inhibition assay, T-Rex 293 SC3 cells without doxycycline (CellTiter-Glo, 72 hours); assay type: cell-based; settings: T-Rex 293 cell line SC3 cells not exposed to doxycycline (lacking increased androgen receptor expression)
Protocol: as §1, §2, §3, §4, §5, §6

Cc1sc2c(c1C)C(c1ccc(N[C@H]3CCN(c4ncc(C(=O)N[C@H]5CC[C@H](Oc6ccc(C#N)c(Cl)c6)CC5)cn4)C[C@@H]3F)cc1)=NC(Cc1ncco1)c1nnc(C)n1-2 (stereo partly drawn) [I-781]
GI50 ([1]; 72 h): < 500 nM
GI50 ([2]; 72 h): < 500 nM

Cc1sc2c(c1C)C(c1ccc(NCC3CCCN(c4ncc(C(=O)N[C@H]5CC[C@H](Oc6ccc(C#N)c(Cl)c6)CC5)cn4)C3)cc1)=NC(Cc1ncco1)c1nnc(C)n1-2 (stereo partly drawn) [I-809]
GI50 ([1]; 72 h): < 500 nM
GI50 ([2]; 72 h): > 3000 nM

Cc1sc2c(c1C)C(c1ccc(N3CCC(C)(CNc4ncc(C(=O)N[C@H]5CC[C@H](Oc6ccc(C#N)c(Cl)c6)CC5)cn4)CC3)cc1)=NC(Cc1ncco1)c1nnc(C)n1-2 (stereo partly drawn) [I-817]
GI50 ([1]; 72 h): < 500 nM
GI50 ([2]; 72 h): < 500 nM

Cc1sc2c(c1C)C(c1ccc(N3CC4CC3CN4c3ncc(C(=O)NC4CCC(Oc5ccc(C#N)c(Cl)c5)CC4)cn3)cc1)=NC(Cc1ncco1)c1nnc(C)n1-2 (mixture of isomers) [I-815]
GI50 [1]: < 500 nM
GI50 [2]: < 500 nM

Cc1sc2c(c1C)C(c1ccc(N3CCCC(CNc4ncc(C(=O)NC5CCC(Oc6ccc(C#N)c(Cl)c6)CC5)cn4)C3)cc1)=NC(Cc1ncco1)c1nnc(C)n1-2 (mixture of isomers) [I-810]
GI50 [1]: < 500 nM
GI50 [2]: 500 to 1500 nM

Cc1sc2c(c1C)C(c1ccc(N3CCN(C4CCN(c5ncc(C(=O)N[C@H]6CC[C@H](Oc7ccc(C#N)c(Cl)c7)CC6)cn5)C4)CC3)cc1)=NC(Cc1ncco1)c1nnc(C)n1-2 (mixture of isomers) [I-783]
GI50 [1]: < 500 nM
GI50 [2]: < 500 nM

Cc1sc2c(c1C)C(c1ccc(N3CCC4(CC3)CCN(c3ncc(C(=O)N[C@H]5CC[C@H](Oc6ccc(C#N)c(Cl)c6)CC5)cn3)C4)cc1)=NC(Cc1ncco1)c1nnc(C)n1-2 (mixture of isomers) [I-779]
GI50 [1]: < 500 nM
GI50 [2]: < 500 nM

Cc1sc2c(c1C)C(c1ccc(N3CC(N4CCN(c5ncc(C(=O)N[C@H]6CC[C@H](Oc7ccc(C#N)c(Cl)c7)CC6)cn5)CC4)C3)cc1)=NC(Cc1ncco1)c1nnc(C)n1-2 (stereo partly drawn) [I-780]
GI50 ([1]; 72 h): < 500 nM
GI50 ([2]; 72 h): < 500 nM

Cc1sc2c(c1C)C(c1ccc(NCC3CN(c4ncc(C(=O)NC5CCC(Oc6ccc(C#N)c(Cl)c6)CC5)cn4)CCO3)cc1)=NC(Cc1ncco1)c1nnc(C)n1-2 (mixture of isomers) [I-814]
GI50 [1]: < 500 nM
GI50 [2]: < 500 nM

Cc1sc2c(c1C)C(c1ccc(N3CCC4(CCN(c5ccc(C(=O)N[C@H]6CC[C@H](Oc7ccc(C#N)c(Cl)c7)CC6)nn5)C4)C3)cc1)=N[C@@H](C)c1nnc(C)n1-2 (stereo partly drawn) [I-535]
GI50 ([1]; 72 h): < 500 nM

Cc1sc2c(c1C)C(c1ccc(N3CC4(CCN(c5ncc(C(=O)N[C@H]6CC[C@H](Oc7ccc(C#N)c(Cl)c7)CC6)cn5)CC4)C3)cc1)=NC(Cc1ncco1)c1nnc(C)n1-2 (stereo partly drawn) [I-777]
GI50 ([1]; 72 h): < 500 nM
GI50 ([2]; 72 h): < 500 nM

Cc1sc2c(c1C)C(c1ccc(N3C[C@H](F)C[C@@H](Nc4ncc(C(=O)N[C@H]5CC[C@H](Oc6ccc(C#N)c(Cl)c6)CC5)cn4)C3)cc1)=NC(Cc1ncco1)c1nnc(C)n1-2 (stereo partly drawn) [I-813]
GI50 ([1]; 72 h): < 500 nM
GI50 ([2]; 72 h): < 500 nM

Cc1sc2c(c1C)C(c1ccc(N3CCO[C@@H](CNc4ncc(C(=O)N[C@H]5CC[C@H](Oc6ccc(C#N)c(Cl)c6)CC5)cn4)C3)cc1)=NC(Cc1ncco1)c1nnc(C)n1-2 (stereo partly drawn) [I-819]
GI50 ([1]; 72 h): < 500 nM
GI50 ([2]; 72 h): < 500 nM

Cc1sc2c(c1C)C(c1ccc(C#CC3CC4(CCCN(c5ccc(C(=O)N[C@H]6CC[C@H](Oc7ccc(C#N)c(Cl)c7)CC6)nn5)C4)C3)cc1)=NC1(CC1)c1nnc(C)n1-2 (stereo partly drawn) [I-472]
GI50 ([1]; 72 h): < 500 nM
GI50 [2]: > 3000 nM

Cc1sc2c(c1C)C(c1ccc(NCCN3CCN(c4ncc(C(=O)N[C@H]5CC[C@H](Oc6ccc(C#N)c(Cl)c6)CC5)cn4)CC3)cc1)=NC(Cc1ncco1)c1nnc(C)n1-2 (stereo partly drawn) [I-774]
GI50 ([1]; 72 h): < 500 nM
GI50 ([2]; 72 h): < 500 nM

Cc1sc2c(c1C)C(c1ccc(N[C@H]3CCN(c4ncc(C(=O)N[C@H]5CC[C@H](Oc6ccc(C#N)c(Cl)c6)CC5)cn4)C3)cc1)=NC(Cc1ncco1)c1nnc(C)n1-2 (stereo partly drawn) [I-773]
GI50 ([1]; 72 h): 500 to 1500 nM
GI50 ([2]; 72 h): 500 to 1500 nM

Cc1sc2c(c1C)C(c1ccc(N3CCCN(CCCNc4ncc(C(=O)N[C@H]5CC[C@H](Oc6ccc(C#N)c(Cl)c6)CC5)cn4)CC3)cc1)=NC(Cc1ncco1)c1nnc(C)n1-2 (stereo partly drawn) [I-816]
GI50 ([1]; 72 h): < 500 nM
GI50 ([2]; 72 h): > 3000 nM

Cc1sc2c(c1C)C(c1ccc(N3[C@@H]4CC[C@H]3C[C@@H](Nc3ncc(C(=O)N[C@H]5CC[C@H](Oc6ccc(C#N)c(Cl)c6)CC5)cn3)C4)cc1)=NC(Cc1ncco1)c1nnc(C)n1-2 (stereo partly drawn) [I-782]
GI50 [1]: < 500 nM
GI50 [2]: > 3000 nM

Cc1sc2c(c1C)C(c1ccc(N3CCN(c4ncc(C(=O)N[C@H]5CC[C@H](Oc6ccc(C#N)c(Cl)c6)CC5)cn4)CC(F)(F)C3)cc1)=NC(Cc1ncco1)c1nnc(C)n1-2 (stereo partly drawn) [I-820]
GI50 ([1]; 72 h): < 500 nM
GI50 ([2]; 72 h): < 500 nM

Cc1sc2c(c1C)C(c1ccc(N3CCC4(CC3)CC(Nc3ncc(C(=O)N[C@H]5CC[C@H](Oc6ccc(C#N)c(Cl)c6)CC5)cn3)C4)cc1)=NC(Cc1ncco1)c1nnc(C)n1-2 (stereo partly drawn) [I-818]
GI50 ([1]; 72 h): < 500 nM
GI50 ([2]; 72 h): < 500 nM

COC[C@@H]1N=C(c2ccc(C3CCC4(CC3)CCN(c3ccc(C(=O)N[C@H]5CC[C@H](Oc6ccc(C#N)c(Cl)c6)CC5)nn3)C4)cc2)c2c(sc(C)c2C)-n2c(C)nnc21 (stereo partly drawn) [I-602]
GI50 ([2]; 72 h): < 500 nM

Cc1sc2c(c1C)C(c1ccc(NCCC3CCN(c4ncc(C(=O)N[C@H]5CC[C@H](Oc6ccc(C#N)c(Cl)c6)CC5)cn4)CC3)cc1)=NC(Cc1ncco1)c1nnc(C)n1-2 (stereo partly drawn) [I-811]
GI50 ([1]; 72 h): < 500 nM
GI50 ([2]; 72 h): < 500 nM

Cc1sc2c(c1C)C(c1ccc(N[C@H]3CC[C@@H](Nc4ncc(C(=O)N[C@H]5CC[C@H](Oc6ccc(C#N)c(Cl)c6)CC5)cn4)CC3)cc1)=NC(Cc1ncco1)c1nnc(C)n1-2 (stereo partly drawn) [I-775]
GI50 ([1]; 72 h): < 500 nM
GI50 ([2]; 72 h): > 3000 nM

Cc1sc2c(c1C)C(c1ccc(N3CC[C@H](Nc4ncc(C(=O)N[C@H]5CC[C@H](Oc6ccc(C#N)c(Cl)c6)CC5)cn4)C3)cc1)=NC(Cc1ncco1)c1nnc(C)n1-2 (stereo partly drawn) [I-776]
GI50 ([1]; 72 h): < 500 nM
GI50 ([2]; 72 h): < 500 nM

Cc1sc2c(c1C)C(c1ccc(N3C[C@@H]4CN(c5ccc(C(=O)N[C@H]6CC[C@H](Oc7ccc(C#N)c(Cl)c7)CC6)nn5)C[C@H]4C3)cc1)=N[C@@H](C)c1nnc(C)n1-2 [I-705]
GI50 ([2]; 72 h): < 500 nM

Cc1sc2c(c1C)C(c1ccc(N3CCC(C)(Nc4ncc(C(=O)N[C@H]5CC[C@H](Oc6ccc(C#N)c(Cl)c6)CC5)cn4)CC3)cc1)=NC(Cc1ncco1)c1nnc(C)n1-2 (stereo partly drawn) [I-778]
GI50 ([1]; 72 h): < 500 nM
GI50 ([2]; 72 h): < 500 nM

Cc1sc2c(c1C)C(c1ccc(CC3CC(OC4CCN(c5ccc(C(=O)NC6CCC(Oc7ccc(C#N)c(Cl)c7)CC6)nn5)CC4)C3)cc1)=NC(C)c1nnc(C)n1-2 (stereo not drawn) [I-603]
GI50 ([1]; 72 h): < 500 nM
GI50 ([2]; 72 h): < 500 nM

Cc1sc2c(c1C)C(c1ccc(N3CCCC4(CCN(c5ncc(C(=O)N[C@H]6CC[C@H](Oc7ccc(C#N)c(Cl)c7)CC6)cn5)CC4)C3)cc1)=NC(Cc1ncco1)c1nnc(C)n1-2 (stereo partly drawn) [I-812]
GI50 ([1]; 72 h): < 500 nM
GI50 ([2]; 72 h): > 3000 nM

COC[C@@H]1N=C(c2ccc(OC3CC4(CCCN(c5ccc(C(=O)N[C@H]6CC[C@H](Oc7ccc(C#N)c(Cl)c7)CC6)nn5)C4)C3)cc2)c2c(sc(C)c2C)-n2c(C)nnc21 (stereo partly drawn) [I-661]
GI50 ([1]; 72 h): < 500 nM
